Experimental data reported in patent publication US20120046363A1, “DOCOSAHEXAENOIC ACID FOR THE TREATMENT OF HEART FAILURE” (University of Maryland, Baltimore, priority 2009, published 2012).

Legend:
[1] = mammalian cells; cited from earlier work
[2] = Rat abdominal aortic constriction (banding) pressure overload model of HF; format: in vivo, male Wistar rats; conditions: rats with aortic banding; ALA from flaxseed oil
Excerpt: A dose-response study was completed with EPA+DHA from fish oil using the rat abdominal aortic constriction pressure overload model of HF. In this model a permanent band is tied around the supra-renal abdominal aorta of male Wistar rats (˜200 g) by placing a blunt needle (20G) along the aorta and tying a 3-0 silk suture around both the aorta and the needle. The needle is removed, leaving the diameter of the aortic lumen determined by the diameter of the needle. The increase in aortic pressure results in progressive LV hypertrophy, mitochondrial dysfunction and decreased activity of mitochondrial enzymes, and LV dilation and contractile dysfunction and thus HF^2, 207-213.
Rats were subjected to abdominal aortic banding and assigned them to 12 wks of treatment with either a standard chow or chow supplemented with EPA+DHA from fish oil at either 0.7, 2.3 or 7% of the total energy intake, with an EPA/DHA ration at a 30/70 mix, respectively. These doses correspond to estimated human doses of 1.6, 5.1 and 15.6 g/day (calculated assuming an energy intake of 2000 kcals/day in humans, and 9 kcals/g of EPA+DHA), thus we spanned both sides of the FDA approved human dose of 3.4 g/day. […] There were no differences in body mass or heart rate among groups. LV mass was 37% greater in the banded rats compared to sham on the standard diet. […]

[3] = similar patient population to GISSI-HF; cited from earlier work

SMILES	conversion of ALA to EPA [1]	cardiomyocyte apoptosis with supplementation [2]	beneficial effect in HF patients [3]
CC/C=C\C/C=C\C/C=C\CCCCCCCC(=O)O [ALA, α-linolenic acid]	~10%	less apoptosis	
CC(C)c1nc(N(C)S(C)(=O)=O)nc(-c2ccc(F)cc2)c1/C=C/[C@@H](O)C[C@@H](O)CC(=O)O [rosuvastatin]			no beneficial effect
